Results reported in PubChem BioAssay AID588593 (Sanford-Burnham Center for Chemical Genomics, 2011).
Several values for one entry are separate records, joined by “and”; a condition that tells them apart may be missing. Equal entries are not always repeated. Activity calls are given as the source filed them. No rule for the calls is given here.

target: glucose-6-phosphate dehydrogenase-6-phosphogluconolactonase (Plasmodium falciparum 3D7); test: PfG6PD enzyme inhibitors, kinetic NADPH readout, SAR follow-up, orthogonal assay, biochemical, kinetic NADPH detection (AID 588593); conditions: recombinant PfG6PD-6PGL

Row | IC50 | Compound
1 | 30.8 µM | CCN1CCC[C@@H]1CNC(=O)c1ccc2c(c1)NC(=O)/C(=C/c1ccccc1F)S2
2 | 7.09 µM | O=C(Nc1nnc(S(=O)(=O)N2CCCCCC2)s1)c1cccc(Br)c1
3 | > 80 µM (inactive) | CCN1CCCC1CNC(=O)c1ccc2c(c1)N(Cc1ccc(C(F)(F)F)cc1)C(=O)c1ccccc1S2 (configuration not stated)
4 | 33.3 µM | O=C(Nc1nnc(S(=O)(=O)N2CCCCCC2)s1)c1ccco1
5 | 47.9 µM | Cc1cccc(N2CCN(CCNC(=O)c3ccc4c(c3)NC(=O)c3ccccc3S4)CC2)c1C
6 | 45.2 µM | CN1CCCC1CCNC(=O)c1ccc2c(c1)NC(=O)/C(=C/c1ccccc1F)S2 (configuration not stated)
7 | > 80 µM (inactive) | O=C1COc2ccc(C(=O)NCCN3CCOCC3)cc2N1
8 | 18.1 µM | O=C(Nc1nnc(S(=O)(=O)N2CCCCCC2)s1)c1cccc(F)c1
9 | > 80 µM (inactive) | O=C1Nc2cc(C(=O)NCCN3CCOCC3)ccc2S/C1=C\c1ccccc1F
10 | 11 µM | O=C1Nc2cc(C(=O)NCCN3CCCCCC3)ccc2S/C1=C/c1ccccc1F
11 | > 80 µM (inactive) | O=C1Nc2cc(C(=O)NCc3ccccc3)ccc2S/C1=C\c1ccccc1F
12 | > 80 µM (inactive) | CCN1CCCC1CNC(=O)c1ccc2c(c1)N(Cc1ccccc1Cl)C(=O)c1ccccc1S2 (configuration not stated)
13 | > 80 µM (inactive) | O=C1Nc2cc(C(=O)NCCN3CCCC3)ccc2S/C1=C/c1ccccc1Cl
14 | 43.9 µM | O=C(Nc1nnc(S(=O)(=O)N2CCCCCC2)s1)c1ccc(F)cc1
15 | 60.5 µM | O=C(NCCN1CCCC1)c1ccc2c(c1)NC(=O)c1ccccc1S2
16 | > 80 µM (inactive) | O=C1Nc2cc(C(=O)NCCN3CCCCCC3)ccc2S/C1=C/c1ccccc1Cl
17 | > 80 µM (inactive) | O=C1COc2ccc(C(=O)NCCN3CCCC3)cc2N1
18 | 34 µM | O=C(Nc1nnc(S(=O)(=O)N2CCCCC2)s1)c1cccc(F)c1
19 | 23.8 µM | CCOc1ccc(C(=O)Nc2nnc(S(=O)(=O)N3CCCCCC3)s2)cc1
20 | 27.2 µM | CCCN(CCC)CCNC(=O)c1ccc2c(c1)NC(=O)/C(=C/c1ccccc1)S2
21 | 46.9 µM | Cc1ccccc1C(=O)Nc1nnc(S(=O)(=O)N2CCCc3ccccc32)s1
22 | > 80 µM (inactive) | CC1Cc2ccccc2N1S(=O)(=O)c1nnc(NC(=O)c2cccc(Br)c2)s1 (configuration not stated)

Row | IC50 | Compound
23 | 4.2 µM | CCN1CCCC1CNC(=O)c1ccc2c(c1)NC(=O)/C(=C/c1cccc3ccccc13)S2 (configuration not stated)
24 | 30.8 µM | CC1Cc2ccccc2N1S(=O)(=O)c1nnc(NC(=O)c2cccc(F)c2)s1 (configuration not stated)
25 | 51.9 µM | O=C(Nc1nnc(S(=O)(=O)N2CCOCC2)s1)c1cccc(F)c1
26 | 8.01 µM and 6.42 µM | CCN1CCCC1CNC(=O)c1ccc2c(c1)NC(=O)c1ccccc1S2 (configuration not stated)
27 | 35.3 µM | COc1cccc(/C=C2/Sc3ccc(C(=O)NCCN4CCCC4)cc3NC2=O)c1
28 | 24.2 µM | Cc1cccc(C(=O)Nc2nnc(S(=O)(=O)N3CCOCC3)s2)c1
29 | 43.6 µM | CN(C)CCNC(=O)c1ccc2c(c1)NC(=O)/C(=C\c1cccc(Cl)c1)S2
30 | 41.8 µM and 57.4 µM | CCN(CC)CCNC(=O)c1ccc2c(c1)NC(=O)c1ccccc1S2
31 | 12.5 µM | CCN(CC)CCNC(=O)c1ccc2c(c1)NC(=O)/C(=C\c1ccc(OC)cc1)S2
32 | > 80 µM (inactive) | CN1CCN(C(=O)c2ccc3c(c2)NC(=O)/C(=C/c2ccccc2Cl)S3)CC1
33 | > 80 µM (inactive) | COc1ccc(/C=C2/Sc3ccc(C(=O)NCCN4CCCC4)cc3NC2=O)cc1
34 | 8.77 µM | Cc1cccc(/C=C2/Sc3ccc(C(=O)NCCN4CCCC4)cc3NC2=O)c1
35 | 3.32 µM | CCN1CCCC1CNC(=O)c1ccc2c(c1)NC(=O)/C(=C\c1ccccc1Cl)S2 (configuration not stated)
36 | 44.6 µM | CCN(CCNC(=O)c1ccc2c(c1)N(CC)C(=O)c1ccccc1S2)c1ccccc1
37 | > 80 µM (inactive) | CCN1CCCC1CNC(=O)c1ccc2c(c1)N(Cc1ccccc1F)C(=O)c1ccccc1S2 (configuration not stated)
38 | > 80 µM (inactive) | COc1ccc(/C=C2/Sc3ccc(C(=O)NCCN4CCCCCC4)cc3NC2=O)cc1
39 | 35.2 µM | O=C(Nc1nnc(S(=O)(=O)N2CCCCCC2)s1)c1ccccc1F
40 | > 80 µM (inactive) | Cc1cccc(C(=O)Nc2nnc(S(=O)(=O)N3CCCc4ccccc43)s2)c1
41 | 9.37 µM | CCN(CC)CCNC(=O)c1ccc2c(c1)NC(=O)/C(=C\c1ccccc1F)S2
42 | > 80 µM (inactive) | Cc1cccc(C(=O)Nc2nnc(S(=O)(=O)N3c4ccccc4CC3C)s2)c1 (configuration not stated)
43 | 45.9 µM | CCCN(CCC)CCNC(=O)c1ccc2c(c1)NC(=O)/C(=C\c1ccc(C)cc1)S2
44 | 58.5 µM | COc1cccc(/C=C2/Sc3ccc(C(=O)NCCN4CCCCCC4)cc3NC2=O)c1

Row | IC50 | Compound
45 | > 80 µM (inactive) | CCN1CCCC1CNC(=O)c1ccc2c(c1)N(Cc1cccc(F)c1)C(=O)c1ccccc1S2 (configuration not stated)
46 | 41.4 µM | CCN1CCCC1CNC(=O)c1ccc2c(c1)NC(=O)CO2 (configuration not stated)
47 | > 80 µM (inactive) | COc1ccc(/C=C2/Sc3ccc(C(=O)NCCN(C)C)cc3NC2=O)cc1
48 | > 80 µM (inactive) | CCN(CC)CCNC(=O)c1ccc2c(c1)N(Cc1cc(C)ccc1C)C(=O)c1ccccc1S2
49 | 5.48 µM | COc1ccc(C(=O)Nc2nnc(S(=O)(=O)N3CCCCCC3)s2)cc1OC
50 | 13.3 µM | O=C(Nc1nnc(S(=O)(=O)N2CCCCCC2)s1)c1ccccc1
51 | > 80 µM (inactive) | O=C(NCCN1CCOCC1)c1ccc2c(c1)NC(=O)c1ccccc1O2
52 | 44.9 µM | CCN(CC)CCNC(=O)c1ccc2c(c1)NC(=O)/C(=C\c1ccccc1Cl)S2
53 | 20.3 µM | O=C(Nc1nnc(S(=O)(=O)N2CCCCCC2)s1)c1cccc(Cl)c1
54 | 10.7 µM | Cc1ccc(C(=O)Nc2nnc(S(=O)(=O)N3CCCCCC3)s2)cc1
55 | 18.4 µM | CCN(CC)CCNC(=O)c1ccc2c(c1)NC(=O)/C(=C/c1ccccc1)S2
56 | > 80 µM (inactive) | CN(C)CCNC(=O)c1ccc2c(c1)NC(=O)c1ccccc1O2
57 | > 80 µM (inactive) | CCN(CC)CCNC(=O)c1ccc2c(c1)NC(=O)CO2
58 | 28.6 µM | CN(CCNC(=O)c1ccc2c(c1)NC(=O)c1ccccc1S2)C1CCCCC1
59 | 9.09 µM | Cc1cccc(C(=O)Nc2nnc(S(=O)(=O)N3CCC(C)CC3)s2)c1
60 | 11.9 µM | CCN1CCCC1CNC(=O)c1ccc2c(c1)NC(=O)c1ccccc1O2 (configuration not stated)
61 | 24.5 µM | CCN(CC)CCNC(=O)c1ccc2c(c1)NC(=O)/C(=C\c1ccc(OC)c(OC)c1)S2
62 | > 80 µM (inactive) | CCN(CC)CCNC(=O)c1ccc2c(c1)N(Cc1ccccc1Cl)C(=O)c1ccccc1S2
63 | > 80 µM (inactive) | Cc1ccc(CN2C(=O)c3ccccc3Sc3ccc(C(=O)NCCN(C)C)cc32)cc1
64 | 5.01 µM | CCN1CCCC1CNC(=O)c1ccc2c(c1)NC(=O)/C(=C/c1ccccc1C)S2 (configuration not stated)
65 | > 80 µM (inactive) | CCN(CC)CCNC(=O)c1ccc2c(c1)N(Cc1ccc(C)cc1)C(=O)c1ccccc1S2
66 | 9.49 µM | CCN1CCC[C@H]1CNC(=O)c1ccc2c(c1)NC(=O)/C(=C/c1ccccc1F)S2

Row | IC50 | Compound
67 | 10 µM | COc1ccccc1C(=O)Nc1nnc(S(=O)(=O)N2CCCCCC2)s1
68 | 47.2 µM | COc1ccc(C(=O)Nc2nnc(S(=O)(=O)N3CCCCCC3)s2)cc1
69 | 31.6 µM | O=C(NCCN1CCCCC1)c1ccc2c(c1)NC(=O)c1ccccc1O2
70 | 77 µM | O=C1COc2ccc(C(=O)NCCN3CCCCC3)cc2N1
71 | 31.6 µM | COc1cccc(C(=O)Nc2nnc(S(=O)(=O)N3CCCCCC3)s2)c1
72 | 48.2 µM | CCN(CCNC(=O)c1ccc2c(c1)N(Cc1cc(C)ccc1C)C(=O)c1ccccc1S2)c1ccccc1
73 | 35.6 µM | O=C(NCCN1CCCC1)c1ccc2c(c1)NC(=O)c1ccccc1O2
74 | > 80 µM (inactive) | CN(C)CCNC(=O)c1ccc2c(c1)NC(=O)CO2
75 | 38.5 µM | O=C(Nc1nnc(S(=O)(=O)N2CCCCCC2)s1)C1CCCCC1
76 | > 80 µM (inactive) | CCN(CCNC(=O)c1ccc2c(c1)NC(=O)c1ccccc1S2)c1ccccc1
77 | 3.17 µM | CCN1CCCC1CNC(=O)c1ccc2c(c1)NC(=O)/C(=C\c1ccccc1F)S2 (configuration not stated)
78 | 4.02 µM | CCC(C)N(CCNC(=O)c1ccc2c(c1)NC(=O)c1ccccc1S2)C1CCCCC1 (configuration not stated)
79 | > 80 µM (inactive) | CCN1CCCC1CNC(=O)c1ccc2c(c1)NC(=O)CS2 (configuration not stated)
80 | > 80 µM (inactive) | Cc1ccc(C(=O)Nc2nnc(S(=O)(=O)N3c4ccccc4CC3C)s2)cc1 (configuration not stated)
81 | 15.9 µM | O=C(Nc1nnc(S(=O)(=O)N2CCCc3ccccc32)s1)c1cccc(F)c1
82 | 11.3 µM | CCN1CCCC1CNC(=O)c1ccc2c(c1)NC(=O)/C(=C/c1ccccc1OC)S2 (configuration not stated)
83 | 62.3 µM | CCN(CC)CCNC(=O)c1ccc2c(c1)NC(=O)c1ccccc1O2
84 | 24 µM | O=C1Nc2cc(C(=O)NCCN3CCCCC3)ccc2S/C1=C\c1ccccc1F
85 | 54.6 µM | Cc1ccc(C(=O)Nc2nnc(S(=O)(=O)N3CCCc4ccccc43)s2)cc1
86 | 5.79 µM | Cc1cccc(C(=O)Nc2nnc(S(=O)(=O)N3CCCCCC3)s2)c1
87 | 11.6 µM | Cc1ccccc1C(=O)Nc1nnc(S(=O)(=O)N2CCCCCC2)s1
